Consider 26 compounds from patent US7026339B2, “Inhibitors of HCV NS5B polymerase” (priority 2003, dated 2006).

Each structure is given as a SMILES string.

This assay deals with HuH-7 replicon cells 5–15 and 9–13 (HCV replication). The assay is described as follows: Inhibition of viral replication in HuH-7 replicon cells (HCV RNA / GAPDH RNA by multiplex RT-PCR). It is filed as cell-based. As to conditions: Hepatitis C virus, 72 h; inhibiting 50% of replication; HuH-7 replicon cells, 3 days; read-out: IC50. How it is done: Compounds were evaluated for inhibition of viral replication according to published procedures (Bartenschlager, R., et. al., Science, 1999, 285, 110) with modifications as follows.
HuH-7 replicon cells 5–15 and 9–13 were cultured in Dulbecco's minimal essential medium (DMEM) containing high glucose and supplemented with 10% fetal bovine serum (FBS), L-glutamine (2 mM), non-essential amino acids (1×), Penicillin (100 IU/mL)/Streptomycin (100 μg/mL) and G418 (Geneticin, 750 μg/mL). Unless otherwise specified, all media components were obtained from Invitrogen. Replicon cell line stocks were maintained as sub-confluent monolayers by passaging every Monday (1:6 split) and Thursday (1:10 split) and incubated at 37° C. with 5% CO2. Tissue culture plates (96-well white clear bottom plates, Corning #3610) were seeded at 7×10^3 cells/well and incubated for 24 hours prior to addition of the compounds.
Compounds in dry powder form were diluted in DMSO (30 mM stock). Serial dilutions of each Compound in DMSO (10 mM–0.1 mM) were performed in a 96-well polypropylene plate using a microtiter format. Culture media (200 μl) was added to the corresponding wells of a sterile 96-well round bottom plate. Diluted compound (2 μl) was added to the corresponding wells of the medial plate (final compound concentrations: 100 μM–1 μM). Culture media was removed from the corresponding wells of the 96-well plate containing the replicon cells and 150 μl diluted compound added. Media containing 1% DMSO and a serially diluted IFN were included on each plate. The cultures were incubated at 37° C. with 5% CO2 for 3 days. Cultures were observed visually for cytotoxicity or compound precipitation prior to RNA extraction described below.
Total cellular RNA was extracted by spin column technology (RNeasy 96, Qiagen) using the vacuum methodology according to the manufacturer's protocol. In brief, culture media was removed and 100 μl RLT lysis buffer containing 0.14M β-mercaptoethanol (β-ME) was added to each well. The plate was kept flat on the laboratory bench and shaken vigorously to lyse the cells. An equal volume of 70% ETOH was mixed with the lysate and added to the corresponding columns of the RNeasy 96-well plate. Vacuum was applied to draw the lysate through the filters. After ventilating the plate, buffer RW1 (1 mL) was drawn through each column. The waste tray was emptied and the filters washed twice with buffer RPE (1 mL/wash). After ventilating the tray, the RNeasy plate was removed and the bottom of the plate struck several times on a stack of paper towels to remove excess wash buffer. The waste tray was removed from the vacuum apparatus and the RNeasy 96-well plate dried by applying vacuum for 10 minutes. Total cellular RNA was eluted from the columns with two washes of 60 μl RNase-free water.
Relative quantitative multiplex RT-PCR was performed using TaqMan (TM) EZ RT Core Reagent kit (Perkin Elmer) according to the manufacturer's protocol (PE Applied Biosystems User Bulletin #2). Primer 061 (NT 61–82) and 139 (NT 139–158) amplifying a short region in the 5′ untranslated region of the HCV genome were utilized at 300 nM final concentrations. Probe #3 (NT 97–119) labeled with FAM reporter dye was utilized at 200 nM final concentration. Pre-developed human GAPDH primers and probe labeled with VIC reporter dye were obtained from PE Applied Biosystems (# 4310884E) and used according to the manufacturer's protocol. TM RT-PCR master mix was prepared containing the above primers/probe for both target RNA. Total cellular RNA (2 μl) was added to the reaction tubes of a 96-well optical plate that corresponded to the wells of the replicon culture plate. The final volume of each reaction was 50 μl. A standard curve was prepared from ten-fold serial dilutions of total cellular RNA extracated from 10^6 replicon cells and eluted in 30 μl RNase-free water. […]
(A replicon is a self-replicating genome or part of one, used to study replication in cells.)

What is called IC50 is the concentration needed to halve the response being measured.

Take `COc1ccc(CC(=O)N/N=C/c2ccccc2OS(=O)(=O)c2ccc(C(F)(F)F)cc2)c(OC)c1` [Compound 51, 2-((E)-{2-[2-(2,4-dimethoxyphenyl)acetyl]hydrazono}methyl)-phenyl 4-(trifluoromethyl)benzenesulfonate]: the IC50 was less than 5 µM. As to `O=C(Cc1ccc(Br)cc1)N/N=C/c1ccccc1OS(=O)(=O)c1ccc(C(F)(F)F)cc1` [Compound 52, 2-((E)-{2-[2-(4-bromophenyl)acetyl]hydrazono}methyl)-phenyl 4-(trifluoromethyl)benzenesulfonate], the IC50 is less than 5 µM. In the case of `COc1cccc(OCC(=O)N/N=C/c2ccccc2OS(=O)(=O)c2ccc(C(F)(F)F)cc2)c1` [Compound 53, 2-((E)-{2-[2-(3-methoxyphenoxy)acetyl]hydrazono}methyl)-phenyl 4-(trifluoromethyl)benzenesulfonate] it was less than 5 µM. Regarding `O=C(CCc1ccco1)N/N=C/c1ccccc1OS(=O)(=O)c1ccc(C(F)(F)F)cc1` [Compound 54, 2-((E)-{2-[3-(2-furyl)propanoyl]hydrazono}methyl)phenyl4-(trifluoromethyl)benzenesulfonate], the IC50 is less than 5 µM. In the case of `COc1cc(CC(=O)N/N=C/c2ccccc2OS(=O)(=O)c2ccc(C(F)(F)F)cc2)cc(OC)c1OC` [Compound 55, 2-((E)-{2-[2-(3,4,5-trimethoxyphenyl)acetyl]hydrazono}methyl)-phenyl 4-(trifluoromethyl)benzenesulfonate] it was greater than 50 µM.

For the compound `O=C(Cc1ccccc1OCc1ccccc1)N/N=C/c1ccccc1OS(=O)(=O)c1ccc(C(F)(F)F)cc1` [Compound 56, 2-[(E)-(2-{2-[2-(benzyloxy)phenyl]acetyl}hydrazono)methyl]-phenyl 4-(trifluoromethyl)benzenesulfonate], the IC50 was less than 5 µM. With `O=C(Cc1ccccc1Oc1ccccc1)N/N=C/c1ccccc1OS(=O)(=O)c1ccc(C(F)(F)F)cc1` [Compound 57, 2-((E)-{2-[2-(2-phenoxyphenyl)acetyl]hydrazono}methyl)-phenyl 4-(trifluoromethyl)benzenesulfonate], the IC50 was less than 5 µM. Take `COc1cccc(CCC(=O)N/N=C/c2ccccc2OS(=O)(=O)c2ccc(C(F)(F)F)cc2)c1` [Compound 58, 2-((E)-{2-[3-(3-methoxyphenyl)propanoyl]hydrazono}-methyl)phenyl 4-(trifluoromethyl)benzenesulfonate]: the IC50 is greater than 50 µM.

On to `O=C(CSc1ccccc1)N/N=C/c1ccccc1OS(=O)(=O)c1ccc(C(F)(F)F)cc1` [Compound 59, 2-((E)-{2-[2-(phenylthio)acetyl]hydrazono}methyl)-phenyl 4-(trifluoromethyl)benzenesulfonate], for which the IC50 was less than 5 µM.

Regarding `O=C(Cc1ccc(I)cc1)N/N=C/c1ccccc1OS(=O)(=O)c1ccc(C(F)(F)F)cc1` [Compound 60, 2-((E)-{2-[2-(4-iodophenyl)acetyl]hydrazono}methyl)-phenyl 4-(trifluoromethyl)benzenesulfonate], the IC50 was less than 5 µM. Take `O=C(Cc1cncc(Br)c1)N/N=C/c1ccccc1OS(=O)(=O)c1ccc(C(F)(F)F)cc1` [Compound 61, 2-((E)-{2-[2-(5-bromopyridin-3-yl)acetyl]hydrazono}methyl)phenyl 4-(trifluoromethyl)benzenesulfonate]: the IC50 is less than 5 µM. Take `O=C(Cc1cccc(Br)c1)N/N=C/c1ccccc1OS(=O)(=O)c1ccc(C(F)(F)F)cc1` [Compound 62, 2-((E)-{2-[2-(3-bromophenyl)acetyl]hydrazono}methyl)-phenyl 4-(trifluoromethyl)benzenesulfonate]: the IC50 is less than 5 µM.

Take `O=C(Cc1ccc(Cl)nc1)N/N=C/c1ccccc1OS(=O)(=O)c1ccc(C(F)(F)F)cc1` [Compound 63, 2-((E)-{2-[2-(6-chloropyridin-3-yl)acetyl]hydrazono}methyl)phenyl 4-(trifluoromethyl)benzenesulfonate]: the IC50 was less than 5 µM. The figure for `O=C(COc1ccccc1)N/N=C/c1ccccc1OS(=O)(=O)c1ccc(C(F)(F)F)cc1` [Compound 64, 2-{(E)-[2-(2-phenoxyacetyl)hydrazono]methyl}phenyl4-(trifluoromethyl)benzenesulfonate] is less than 5 µM; for `O=C(Cc1cccc2occc12)N/N=C/c1ccccc1OS(=O)(=O)c1ccc(C(F)(F)F)cc1` [Compound 65, 2-((E)-{2-[2-(1-benzofuran-4-yl)acetyl]hydrazono}methyl)phenyl 4-(trifluoromethyl)benzenesulfonate] it is 5 to 50 µM. In the case of `COc1cc(OC)c(CC(=O)N/N=C/c2ccccc2OS(=O)(=O)c2ccc(C(F)(F)F)cc2)c(OC)c1` [Compound 66, 2-((E)-{2-[2-(2,4,6-trimethoxyphenyl)acetyl]hydrazono}methyl)-phenyl 4-(trifluoromethyl)benzenesulfonate] it was 5 to 50 µM; in that of `CCOc1ccc(CC(=O)N/N=C/c2ccccc2OS(=O)(=O)c2ccc(C(F)(F)F)cc2)cc1` [Compound 67, 2-((E)-{2-[2-(4-ethoxyphenyl)acetyl]hydrazono}methyl)-phenyl 4-(trifluoromethyl)benzenesulfonate], 5 to 50 µM; in that of `O=C(Cc1ccc2ccccc2c1)N/N=C/c1ccccc1OS(=O)(=O)c1ccc(C(F)(F)F)cc1` [Compound 68, 2-((E)-{2-[2-(2-naphthyl)acetyl]hydrazono}methyl)phenyl4-(trifluoromethyl)benzenesulfonate], less than 5 µM.

Regarding `CS(=O)(=O)c1ccc(CC(=O)N/N=C/c2ccccc2OS(=O)(=O)c2ccc(C(F)(F)F)cc2)cc1` [Compound 69, 2-[(E)-(2-{2-[4-(methylsulfonyl)phenyl]acetyl}hydrazono)-methyl]phenyl 4-(trifluoromethyl)benzenesulfonate], the IC50 is greater than 50 µM.

With `COc1ccc(CC(=O)N/N=C/c2ccccc2OS(=O)(=O)c2ccc(C(F)(F)F)cc2)cc1Br` [Compound 70, 2-((E)-{2-[2-(3-bromo-4-methoxyphenyl)acetyl]hydrazono}methyl)-phenyl 4-(trifluoromethyl)benzenesulfonate], the IC50 is less than 5 µM. The figure for `O=C(N/N=C/c1ccccc1OS(=O)(=O)c1ccc(C(F)(F)F)cc1)c1cccc2ccccc12` [Compound 71, 2-{(E)-[2-(1-naphthoyl)hydrazono]methyl}phenyl 4-(trifluoromethyl)benzenesulfonate] is less than 5 µM. In the case of `O=C(N/N=C/c1ccccc1OS(=O)(=O)c1ccc(C(F)(F)F)cc1)c1cc(Cl)ccc1Cl` [Compound 72, 2-{(E)-[2-(2,5-dichlorobenzoyl)hydrazono]methyl}phenyl4-(trifluoromethyl)benzenesulfonate] it was less than 5 µM.

On to `O=C(N/N=C/c1ccccc1OS(=O)(=O)c1ccc(C(F)(F)F)cc1)c1ccccc1Cl` [Compound 73, 2-{(E)-[2-(2-chlorobenzoyl)hydrazono]methyl}phenyl 4-(trifluoromethyl)benzenesulfonate], for which the IC50 is less than 5 µM. For `O=C(N/N=C/c1ccccc1OS(=O)(=O)c1ccc(C(F)(F)F)cc1)c1ccc(Cl)cc1Cl` [Compound 74, 2-{(E)-[2-(2,4-dichlorobenzoyl)hydrazono]methyl}phenyl4-(trifiuoromethyl)benzenesulfonate], the IC50 was less than 5 µM. For the compound `O=C(N/N=C/c1ccccc1OS(=O)(=O)c1ccc(C(F)(F)F)cc1)OCc1ccccc1` [Compound 75, benzyl (2E)-2-[2-({[4-(trifluoromethyl)phenyl]sulfonyl}oxy)-benzylidene]hydrazinecarboxylate], the IC50 was less than 5 µM. On to `O=C(N/N=C/c1ccccc1OS(=O)(=O)c1ccc(C(F)(F)F)cc1)c1cccnc1` [Compound 76, 2-{(E)-[2-(pyridin-3-ylcarbonyl)hydrazono]methyl}phenyl 4-(trifluoromethyl)benzenesulfonate], for which the half-inhibitory concentration (IC50) lay in the range of 5 to 50 µM.
